Source: ChEMBL document CHEMBL5465560, “Selectivity Literature for EUbOPEN Chemogenomic Library” (2024)
Blank lines part the entries; values can stand above or below the molecule they belong to.

How the values were obtained:
[1] = tested on: Tyrosine-protein kinase ABL1 (Homo sapiens), P00519 [F317I]; test: Selectivity interaction (KinomeScan (DiscoverX)) EUB0000666a ABL1; conditions: at 10 µM
[2] = biological target: 5'-AMP-activated protein kinase catalytic subunit alpha-2 (Homo sapiens) (UniProt P54646); test: Selectivity interaction (KinomeScan (DiscoverX)) EUB0000311b PRKAA2; conditions: at 1 µM
[3] = biological target: Cyclin-dependent kinase 13 (Homo sapiens, UniProt Q14004); test: Selectivity interaction (KinomeScan (DiscoverX)) EUB0000607a CDK13; conditions: at 10 µM
[4] = biological target: T1, Tyrosine-protein kinase JAK3 (Homo sapiens) (UniProt P52333); test: Selectivity interaction (KinomeScan (DiscoverX)) EUB0000607a JAK3; conditions: at 10 µM
T1 sequence (whole entry): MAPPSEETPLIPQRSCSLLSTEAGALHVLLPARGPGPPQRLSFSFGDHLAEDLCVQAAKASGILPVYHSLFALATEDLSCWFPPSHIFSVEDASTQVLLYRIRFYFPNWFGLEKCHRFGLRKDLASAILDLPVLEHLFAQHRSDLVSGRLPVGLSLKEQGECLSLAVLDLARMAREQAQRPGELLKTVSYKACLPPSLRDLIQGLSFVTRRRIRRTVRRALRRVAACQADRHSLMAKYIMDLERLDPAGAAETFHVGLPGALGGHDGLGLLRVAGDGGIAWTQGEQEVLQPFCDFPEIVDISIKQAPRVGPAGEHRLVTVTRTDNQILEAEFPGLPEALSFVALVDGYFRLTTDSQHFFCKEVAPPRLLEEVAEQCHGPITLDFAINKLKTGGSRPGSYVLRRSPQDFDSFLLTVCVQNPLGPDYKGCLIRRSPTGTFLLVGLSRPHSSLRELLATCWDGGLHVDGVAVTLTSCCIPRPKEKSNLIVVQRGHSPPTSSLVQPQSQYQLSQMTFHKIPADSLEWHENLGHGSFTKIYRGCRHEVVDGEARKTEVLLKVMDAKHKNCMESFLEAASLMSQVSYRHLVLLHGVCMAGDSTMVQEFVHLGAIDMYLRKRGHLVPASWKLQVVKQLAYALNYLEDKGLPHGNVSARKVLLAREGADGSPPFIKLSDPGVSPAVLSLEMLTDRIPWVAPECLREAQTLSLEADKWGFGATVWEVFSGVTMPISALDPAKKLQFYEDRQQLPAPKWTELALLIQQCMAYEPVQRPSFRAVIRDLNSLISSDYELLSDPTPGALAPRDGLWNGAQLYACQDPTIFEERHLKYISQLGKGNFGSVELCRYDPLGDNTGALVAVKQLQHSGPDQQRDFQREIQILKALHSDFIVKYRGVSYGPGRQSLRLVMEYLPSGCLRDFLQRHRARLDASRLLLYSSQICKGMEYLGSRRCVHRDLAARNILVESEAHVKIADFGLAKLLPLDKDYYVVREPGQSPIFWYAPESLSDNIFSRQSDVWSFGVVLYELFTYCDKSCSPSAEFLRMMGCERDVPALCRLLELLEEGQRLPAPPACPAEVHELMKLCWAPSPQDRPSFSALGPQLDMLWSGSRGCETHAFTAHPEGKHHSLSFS

[5] = biological target: SRSF protein kinase 3 (Homo sapiens) (UniProt Q9UPE1); test: Selectivity interaction (Upstate Kinase Profiler service (Millipore)) EUB0000056c SRPK3; conditions: at 1 µM
[6] = biological target: Serine/threonine-protein kinase MARK2 (Homo sapiens) (UniProt Q7KZI7); test: Selectivity interaction (ActivX KiNativ screen (kinase selectivity in THP-1 cell lysates)) EUB0000639a MARK2; assay type: subcellular; conditions: lysate, at 1 µM
[7] = biological target: 5-hydroxytryptamine receptor 2A (Homo sapiens, UniProt P28223); test: Selectivity interaction (Panel of non-epigenetic targets (kinases, GPCRs, ion channels, and transporters, Eurofins) ) EUB0000271b HTR2A; conditions: at 1 µM
[8] = biological target: Mitogen-activated protein kinase 9 (Homo sapiens, UniProt P45984); test: Selectivity interaction (Kinase panel (DSF assay)) EUB0001559a MAPK9
[9] = biological target: Cyclin-dependent kinase 17 (Homo sapiens) (UniProt Q00537); test: Selectivity interaction (KinomeScan (DiscoverX)) EUB0000655a CDK17; conditions: at 10 µM
[10] = biological target: RAF proto-oncogene serine/threonine-protein kinase (Homo sapiens) (UniProt P04049); test: Selectivity interaction (KinomeScan (DiscoverX)) EUB0000045b RAF1
[11] = biological target: T2, Dual specificity mitogen-activated protein kinase kinase 7 (Homo sapiens) (UniProt O14733); test: Selectivity interaction (Kinase panel (KiNativ target engagement assay in Jurkat cells)) EUB0001635a MAP2K7; assay type: cell-based; conditions: Selectivity number of off-targets 0.0, Selectivity number of targets 233.0, Source Knowledge https://www.sciencedirect.com/science/article/pii/S2451945619300674?via%3Dihub, at 1 µM
T2 sequence (whole entry): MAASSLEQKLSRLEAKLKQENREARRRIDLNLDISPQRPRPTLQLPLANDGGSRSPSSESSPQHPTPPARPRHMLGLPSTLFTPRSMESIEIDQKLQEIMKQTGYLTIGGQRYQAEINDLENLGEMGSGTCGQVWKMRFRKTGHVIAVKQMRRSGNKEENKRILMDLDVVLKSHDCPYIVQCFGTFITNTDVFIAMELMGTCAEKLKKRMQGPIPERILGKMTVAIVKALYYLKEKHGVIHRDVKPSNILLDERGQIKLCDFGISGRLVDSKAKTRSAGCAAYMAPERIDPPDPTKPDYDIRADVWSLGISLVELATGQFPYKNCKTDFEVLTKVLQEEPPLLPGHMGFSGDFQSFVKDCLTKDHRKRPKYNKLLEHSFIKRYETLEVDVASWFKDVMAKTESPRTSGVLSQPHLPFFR

RAF proto-oncogene serine/threonine-protein kinase (Homo sapiens), sequence (P04049 whole entry): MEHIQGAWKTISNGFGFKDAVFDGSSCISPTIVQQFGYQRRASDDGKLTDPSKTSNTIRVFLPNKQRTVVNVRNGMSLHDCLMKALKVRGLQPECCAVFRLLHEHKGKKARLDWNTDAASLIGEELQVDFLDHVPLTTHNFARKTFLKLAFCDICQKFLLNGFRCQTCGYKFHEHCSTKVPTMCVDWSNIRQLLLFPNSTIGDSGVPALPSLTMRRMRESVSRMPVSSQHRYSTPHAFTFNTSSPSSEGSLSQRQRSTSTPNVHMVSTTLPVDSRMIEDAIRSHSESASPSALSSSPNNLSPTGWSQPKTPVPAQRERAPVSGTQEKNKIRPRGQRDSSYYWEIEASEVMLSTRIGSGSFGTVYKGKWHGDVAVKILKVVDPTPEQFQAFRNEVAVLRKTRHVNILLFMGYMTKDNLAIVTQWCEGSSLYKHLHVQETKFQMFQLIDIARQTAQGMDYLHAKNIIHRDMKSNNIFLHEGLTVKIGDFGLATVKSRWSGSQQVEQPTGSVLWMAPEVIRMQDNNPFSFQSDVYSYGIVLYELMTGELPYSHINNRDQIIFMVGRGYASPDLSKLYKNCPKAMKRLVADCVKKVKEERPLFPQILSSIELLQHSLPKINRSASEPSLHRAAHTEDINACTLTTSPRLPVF
Serine/threonine-protein kinase MARK2 (Homo sapiens), sequence (Q7KZI7 whole entry): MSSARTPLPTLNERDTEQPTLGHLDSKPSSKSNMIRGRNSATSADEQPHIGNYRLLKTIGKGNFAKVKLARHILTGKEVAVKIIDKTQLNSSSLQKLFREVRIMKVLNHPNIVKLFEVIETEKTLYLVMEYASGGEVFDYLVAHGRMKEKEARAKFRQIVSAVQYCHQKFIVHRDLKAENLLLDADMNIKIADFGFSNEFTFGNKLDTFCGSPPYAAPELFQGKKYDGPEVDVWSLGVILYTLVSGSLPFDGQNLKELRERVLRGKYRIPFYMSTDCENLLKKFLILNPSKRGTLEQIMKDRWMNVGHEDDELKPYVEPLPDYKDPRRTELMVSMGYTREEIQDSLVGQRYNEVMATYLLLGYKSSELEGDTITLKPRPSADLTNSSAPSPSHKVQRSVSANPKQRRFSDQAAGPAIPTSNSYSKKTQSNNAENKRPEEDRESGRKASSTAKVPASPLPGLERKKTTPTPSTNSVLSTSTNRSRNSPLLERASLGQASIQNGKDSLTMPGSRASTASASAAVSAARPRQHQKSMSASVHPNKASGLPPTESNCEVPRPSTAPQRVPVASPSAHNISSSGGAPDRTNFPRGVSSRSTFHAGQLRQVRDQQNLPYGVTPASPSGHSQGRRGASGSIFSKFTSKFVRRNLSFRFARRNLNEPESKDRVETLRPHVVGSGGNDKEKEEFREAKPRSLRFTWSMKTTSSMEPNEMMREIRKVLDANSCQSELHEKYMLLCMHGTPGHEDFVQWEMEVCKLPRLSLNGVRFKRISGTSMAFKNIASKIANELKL
Tyrosine-protein kinase ABL1 (Homo sapiens), P00519 [F317I], sequence (P00519 whole entry F317I): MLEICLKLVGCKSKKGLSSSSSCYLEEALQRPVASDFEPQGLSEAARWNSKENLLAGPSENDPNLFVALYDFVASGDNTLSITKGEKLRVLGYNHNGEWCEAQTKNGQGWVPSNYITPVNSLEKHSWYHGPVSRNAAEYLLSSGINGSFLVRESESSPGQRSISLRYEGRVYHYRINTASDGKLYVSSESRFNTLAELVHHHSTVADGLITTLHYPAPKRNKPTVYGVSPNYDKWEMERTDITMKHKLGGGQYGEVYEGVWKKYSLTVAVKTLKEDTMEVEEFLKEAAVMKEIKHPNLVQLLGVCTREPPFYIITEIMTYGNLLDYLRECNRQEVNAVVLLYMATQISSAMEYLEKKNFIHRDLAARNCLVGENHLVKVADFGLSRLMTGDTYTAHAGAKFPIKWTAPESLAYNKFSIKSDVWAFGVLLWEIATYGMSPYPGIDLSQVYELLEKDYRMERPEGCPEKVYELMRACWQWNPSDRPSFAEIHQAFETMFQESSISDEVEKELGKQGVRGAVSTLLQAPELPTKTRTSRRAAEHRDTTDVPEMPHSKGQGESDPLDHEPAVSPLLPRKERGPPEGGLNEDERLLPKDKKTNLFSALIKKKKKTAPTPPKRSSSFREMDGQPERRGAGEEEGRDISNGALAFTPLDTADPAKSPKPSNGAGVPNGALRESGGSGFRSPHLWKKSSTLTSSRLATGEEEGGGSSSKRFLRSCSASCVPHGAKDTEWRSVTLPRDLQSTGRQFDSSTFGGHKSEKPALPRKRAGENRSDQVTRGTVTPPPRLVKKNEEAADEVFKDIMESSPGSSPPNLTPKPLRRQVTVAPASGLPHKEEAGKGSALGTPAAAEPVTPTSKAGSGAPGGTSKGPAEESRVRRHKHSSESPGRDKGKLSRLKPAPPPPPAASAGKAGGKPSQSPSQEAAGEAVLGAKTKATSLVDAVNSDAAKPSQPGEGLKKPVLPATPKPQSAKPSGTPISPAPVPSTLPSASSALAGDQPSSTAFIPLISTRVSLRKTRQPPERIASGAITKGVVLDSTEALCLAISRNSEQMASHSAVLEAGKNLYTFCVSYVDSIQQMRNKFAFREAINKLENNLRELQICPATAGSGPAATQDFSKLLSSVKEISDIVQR
Cyclin-dependent kinase 17 (Homo sapiens), sequence (Q00537 whole entry, looked up): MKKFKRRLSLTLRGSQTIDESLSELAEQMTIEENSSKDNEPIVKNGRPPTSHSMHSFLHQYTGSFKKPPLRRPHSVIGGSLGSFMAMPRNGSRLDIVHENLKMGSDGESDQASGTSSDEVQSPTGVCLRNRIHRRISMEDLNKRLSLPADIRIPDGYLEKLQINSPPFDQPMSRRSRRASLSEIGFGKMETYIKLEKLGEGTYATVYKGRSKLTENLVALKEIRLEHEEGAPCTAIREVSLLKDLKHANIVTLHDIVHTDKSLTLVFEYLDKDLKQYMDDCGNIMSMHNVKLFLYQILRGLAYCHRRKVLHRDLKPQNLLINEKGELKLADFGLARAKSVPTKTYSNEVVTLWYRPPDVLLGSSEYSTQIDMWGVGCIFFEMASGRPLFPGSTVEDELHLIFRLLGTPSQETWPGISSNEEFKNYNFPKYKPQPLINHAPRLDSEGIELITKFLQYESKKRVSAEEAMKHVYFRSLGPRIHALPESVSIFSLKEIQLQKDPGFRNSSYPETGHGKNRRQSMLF
5'-AMP-activated protein kinase catalytic subunit alpha-2 (Homo sapiens), sequence (P54646 whole entry, looked up): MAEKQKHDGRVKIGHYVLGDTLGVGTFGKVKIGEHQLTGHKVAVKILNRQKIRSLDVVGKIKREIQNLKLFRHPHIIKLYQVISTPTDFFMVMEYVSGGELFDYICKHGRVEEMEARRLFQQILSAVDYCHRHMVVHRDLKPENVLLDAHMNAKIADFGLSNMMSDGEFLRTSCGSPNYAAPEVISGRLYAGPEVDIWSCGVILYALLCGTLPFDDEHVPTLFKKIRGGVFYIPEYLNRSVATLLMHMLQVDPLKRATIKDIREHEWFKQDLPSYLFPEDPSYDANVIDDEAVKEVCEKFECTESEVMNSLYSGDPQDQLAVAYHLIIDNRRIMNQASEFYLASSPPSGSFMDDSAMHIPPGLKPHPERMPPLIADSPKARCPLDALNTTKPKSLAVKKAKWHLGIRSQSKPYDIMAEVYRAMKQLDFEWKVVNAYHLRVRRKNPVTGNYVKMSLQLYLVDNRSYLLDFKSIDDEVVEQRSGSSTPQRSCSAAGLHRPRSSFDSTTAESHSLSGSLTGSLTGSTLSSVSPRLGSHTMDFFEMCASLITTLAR
SRSF protein kinase 3 (Homo sapiens), sequence (Q9UPE1 whole entry): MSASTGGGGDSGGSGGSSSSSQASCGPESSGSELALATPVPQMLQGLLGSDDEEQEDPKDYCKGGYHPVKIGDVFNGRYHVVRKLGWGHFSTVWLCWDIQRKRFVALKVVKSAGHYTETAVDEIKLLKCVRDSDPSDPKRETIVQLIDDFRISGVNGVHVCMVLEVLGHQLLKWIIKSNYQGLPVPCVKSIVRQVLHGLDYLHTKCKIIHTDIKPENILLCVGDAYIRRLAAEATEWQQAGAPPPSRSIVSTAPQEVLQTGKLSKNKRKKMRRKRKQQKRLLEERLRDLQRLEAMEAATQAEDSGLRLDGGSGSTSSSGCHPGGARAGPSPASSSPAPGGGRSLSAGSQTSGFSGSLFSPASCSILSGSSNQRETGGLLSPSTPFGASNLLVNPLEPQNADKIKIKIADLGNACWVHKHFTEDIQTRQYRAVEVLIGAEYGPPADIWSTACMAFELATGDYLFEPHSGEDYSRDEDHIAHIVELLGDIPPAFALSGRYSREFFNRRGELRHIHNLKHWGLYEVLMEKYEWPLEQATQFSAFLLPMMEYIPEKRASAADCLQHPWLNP
5-hydroxytryptamine receptor 2A, sequence (P28223 whole entry): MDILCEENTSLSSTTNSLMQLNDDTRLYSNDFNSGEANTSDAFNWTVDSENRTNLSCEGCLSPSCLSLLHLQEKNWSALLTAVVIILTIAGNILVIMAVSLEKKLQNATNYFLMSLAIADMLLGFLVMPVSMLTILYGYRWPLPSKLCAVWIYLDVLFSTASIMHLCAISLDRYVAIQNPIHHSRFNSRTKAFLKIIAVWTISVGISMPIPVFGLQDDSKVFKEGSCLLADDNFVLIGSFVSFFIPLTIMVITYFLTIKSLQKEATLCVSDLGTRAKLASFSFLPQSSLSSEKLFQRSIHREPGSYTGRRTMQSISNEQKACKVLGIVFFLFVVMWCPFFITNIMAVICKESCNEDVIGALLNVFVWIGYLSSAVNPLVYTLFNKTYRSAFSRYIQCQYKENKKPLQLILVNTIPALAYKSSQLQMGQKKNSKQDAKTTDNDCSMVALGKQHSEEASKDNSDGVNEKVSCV

Compound: O=C(NOC[C@H](O)CO)c1ccc(F)c(F)c1Nc1ccc(I)cc1F
- % of control [1]: 100%

- % of control [2]: 0%
Compound: CCc1ccccc1C(=O)Nc1n[nH]c2c(C)c(F)c(C3C(C#N)=C(C)N(C)C(C)=C3C#N)cc12 [BAY-3827]

Compound: CNC(=O)Nc1ccc(-c2nc(N3CC4CCC(C3)O4)c3cnn(C4CCC5(CC4)OCCO5)c3n2)cc1
- % of control [3]: 84%
- % of control [4]: 90%

- % of inhibition [5]: 36%
Compound: Cc1ccc(-c2ccc3c(ccc4sc5c(c43)NC[C@@H](C)NC5=O)n2)cn1

- % of inhibition [6]: 23.8%
Compound: CC[C@@H]1[C@H](F)C(=O)N[C@@H]1COc1nccc2cc(C(N)=O)c(OC)cc12 [ZIMLOVISERTIB]

Compound: Cc1cc(C)cc([C@@H]2c3cc(C)ccc3NC(=O)CN2C(=O)c2ccc(Br)s2)c1
- % of inhibition [7]: 12%

- dTM [8]: 0.5 K
Compound: CN(C(=O)c1cnn2cccnc12)c1cc2c(cc1N1CCOCC1)C(=O)N(C[C@@H](F)C(C)(C)O)C2

Compound: CN(C)CCOc1ccc(-c2nc(-c3ccncc3)c(-c3ccc4c(c3)CC/C4=N\O)[nH]2)cc1
- % of control [9]: 87%

Compound: C=CC(=O)Nc1cc(-n2c(=O)ccc3cnc4ccc(-c5ccc(NS(C)(=O)=O)cc5)cc4c32)ccc1C
- % of control ([10]; at 1 µM): 100%
- % of control ([10]; at 10 µM): 100%

Compound: C=CC(=O)Nc1ccc(C(=O)Nc2[nH]nc3c2CN(C(=O)N[C@H](CN(C)C)c2ccccc2)C3(C)C)cc1
- % of engagement [11]: 22.4%
